For one assay, the system named is REC-1 T474I cell lines. Kind of assay: Cell proliferation assay REC-1 BTK T474I knock-in cells (ATPlite, 72 hours). The assay is classed as cell-based. The conditions noted are these: Homo sapiens, Rec1; 72 hours; read-out: IC50 REC-1 T474I. In outline:
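REC-1 cells carrying CRISPR knock-in mutant BTK, single-cell cloned and sequence-confirmed, were exposed to compound for 72 h and read by ATPlite luminescence. Percentage growth was calculated against the signal at the start of incubation and against untreated 0.3% DMSO wells as maximum growth.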

The target of another assay is BTK T474S (Homo sapiens (Human), UniProt Q06187, T474S). Kind of assay: Binding kinetics measurements (Surface Plasmon Resonance) on BTK T474S. Conditions: for residence time: SPR binding kinetics, BTK T474S, read-out: Tau (h) BTK T474S (Act), target residence time (converted); for Kd: binding affinity by Surface Plasmon Resonance (SPR). The gist of the method: (§1)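 Biotinylated BTK captured on streptavidin chips (4° C; free streptavidin blocked with biocytin); runs at 22° C in buffer with 1% DMSO, 30 μl/min. Single cycle kinetics, five injections rising over 3.16-316 nM; double-referenced sensorgrams fitted, two-state model for induced fit, duplicate constants geometrically averaged.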
BTK T474S, sequence (Q06187 whole entry T474S): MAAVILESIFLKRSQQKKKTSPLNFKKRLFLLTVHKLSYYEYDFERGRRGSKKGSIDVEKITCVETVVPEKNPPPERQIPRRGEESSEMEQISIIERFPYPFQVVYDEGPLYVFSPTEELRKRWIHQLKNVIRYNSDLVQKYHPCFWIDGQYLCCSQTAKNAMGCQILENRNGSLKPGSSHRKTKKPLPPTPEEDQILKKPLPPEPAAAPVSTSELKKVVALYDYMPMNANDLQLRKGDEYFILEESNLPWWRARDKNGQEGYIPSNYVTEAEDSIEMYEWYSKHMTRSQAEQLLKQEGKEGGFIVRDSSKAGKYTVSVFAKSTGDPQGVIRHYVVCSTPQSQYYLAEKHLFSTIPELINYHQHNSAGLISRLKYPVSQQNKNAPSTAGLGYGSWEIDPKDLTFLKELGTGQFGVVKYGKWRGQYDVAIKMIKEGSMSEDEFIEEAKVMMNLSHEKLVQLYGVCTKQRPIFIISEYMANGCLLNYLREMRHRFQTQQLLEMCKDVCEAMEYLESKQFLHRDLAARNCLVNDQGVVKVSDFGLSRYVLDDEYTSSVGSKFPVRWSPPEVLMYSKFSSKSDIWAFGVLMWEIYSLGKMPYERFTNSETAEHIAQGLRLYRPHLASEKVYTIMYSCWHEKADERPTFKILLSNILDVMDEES

The target in a further assay is BTK T316A (Homo sapiens (Human), UniProt Q06187, T316A). Kind of assay: Binding kinetics measurements (Surface Plasmon Resonance) on BTK T316A. The conditions noted are these: for Kd: binding affinity by Surface Plasmon Resonance (SPR); for Tau (h) BTK T316A (Act): target residence time, SPR. The gist of the method:
as §1

BTK T316A, sequence (Q06187 whole entry T316A): as the sequence (Q06187 whole entry T474S) above, with T316A, S474T counted along it

For `N#Cc1ccnc(NC(=O)c2ccc(-c3nc4n5c(cnc(N)c35)/C=C/CCOCCC(=O)N[C@@H]3CC[C@@H]4C3)cc2)c1` [Example 201], in the assay with REC-1 T474I cell lines, the IC50 is less than 100 nM.
For `C[C@@H]1CC(=O)N[C@@H]2CCC[C@H](C2)n2nc(-c3ccc(C(=O)Nc4cc(C(F)(F)F)ccn4)cc3)c3c(N)ncc(c32)/C=C/CCN1` [Example 45], on BTK T474S, the residence time was 2.94 h and the Kd was less than 3 nM. In addition, on BTK T316A, the dissociation constant Kd is less than 5 nM and the “Tau (h) BTK T316A (Act)” value is listed as 6.06 h. Also, the concentration for half-maximal inhibition (IC50) in the assay on REC-1 T474I cell lines was less than 100 nM.
Turning to `N#Cc1ccnc(NC(=O)c2ccc(-c3nc4n5c(cnc(N)c35)/C=C/CCCCCC(=O)N[C@@H]3CC[C@@H]4C3)cc2)c1` [Example 204], the 50% inhibitory concentration (IC50) in the assay with REC-1 T474I cell lines is less than 100 nM.
On the same count and under the same terms, the same measure for `N#Cc1ccnc(NC(=O)c2ccc(-c3nc4n5c(cnc(N)c35)/C=C/CCCCCC(=O)N[C@@H]3CCC[C@@H]4C3)cc2)c1` [Example 184]: less than 100 nM.
Consider `Nc1ncc2c3c1c(-c1ccc(C(=O)Nc4cc(C(F)(F)F)ccn4)cc1)nn3[C@@H]1CCC[C@H](C1)NC(=O)CCOC/C=C/2` [Example 25], for which, on BTK T474S, the residence time is 2.64 h and the dissociation constant Kd is less than 3 nM. Moreover, on BTK T316A, the Kd was less than 5 nM and the “Tau (h) BTK T316A (Act)” value was found to be 3.55 h. Moreover, the half-maximal inhibitory concentration (IC50) in the assay on REC-1 T474I cell lines is less than 100 nM.

For the origin of these results see patent publication US20250074911A1, “MACROCYCLIC BTK INHIBITORS” (Crossfire Oncology Holding B.V., priority 2021, published 2025).
